This passage reports IC50 results from US11472805B2, “Tricyclic compounds and their use as phosphodiesterase inhibitors” (Pfizer Inc., priority 2015, dated 2022).

The structures appear in SMILES notation. Read-outs that look alike come from different tables or passages of the source.

Holding throughout (format): biochemical
Test [1] has as its target Human PDE4A3 (Homo sapiens (Human), UniProt P27815). The test is described as follows: PDE4A3 Scintillation Proximity Assay (SPA), inhibition of enzyme activity. Particulars: read-out: Human PDE4A FL. An outline of the steps: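 Recombinant human PDE4A3 expressed in insect cells, purified via Ni-NTA, anti-FLAG and size exclusion. SPA run 30 min at 25 °C in 50 mM Tris pH 7.5, 1.3 mM MgCl2, 0.01% Brij with 1 μM cAMP (20 nM 3H-cAMP), […], ~20% substrate conversion; stopped with yttrium silicate beads.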

For test [2], the target named is Human PDE4B1 (Homo sapiens (Human), UniProt Q07343, S133E/S654A/S659A/S661A). The test is described as follows: PDE4B1 Scintillation Proximity Assay (SPA), inhibition of enzyme activity. Particulars: read-out: Human PDE4B FL. In short, it runs like this:
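His-tagged enzyme from baculovirus-infected insect cells, Ni-NTA purified. SPA with 1 μM cAMP (20 nM 3H-cAMP tracer) in 50 mM Tris pH 7.5, 1.3 mM MgCl2, 0.01% Brij, […] PDE4B enzyme for ~20% substrate conversion; 30 min at 25 °C, stopped with yttrium silicate beads, read after 8 h settling.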

The target of test [3] is Human PDE4C1 (Homo sapiens (Human), UniProt Q08493). The test is described as follows: PDE4C1 Scintillation Proximity Assay (SPA), inhibition of enzyme activity. The conditions noted are these: read-out: Human PDE4C FL. In short, it runs like this:
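Recombinant insect-cell-expressed human PDE4C1 […] in 50 mM Tris pH 7.5, 1.3 mM MgCl2, 0.01% Brij with 1 μM cAMP (3H-cAMP tracer), ~20% substrate conversion, inhibitor concentration range. Incubated 30 min at 25° C; stopped with yttrium silicate SPA beads, read by scintillation after 8 h settling.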

Test [4] has as its target human PDE4D3 (Homo sapiens (Human), UniProt Q08499). The test is described as follows: PDE4D3 Scintillation Proximity Assay (SPA), inhibition of enzyme activity. The conditions noted are these: read-out: Human PDE4D FL. In short, it runs like this:
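His-tagged human PDE4D3 (aa 50–672), expressed in insect cells, hydrolysed 1 μM cAMP (3H tracer plus cold) for 30 min at 25° C in 50 mM Tris pH 7.5, 1.3 mM MgCl2 and 0.01% Brij. Enzyme level was set for ~20% conversion. Product was read by yttrium silicate SPA beads after 8 h settling.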

[5] abbreviates: Table 9, geometric mean of 2-9 determinations unless otherwise indicated.
Setting [6] is: Table 10, geometric mean of 2-9 determinations unless otherwise indicated.

human PDE4D3, sequence (Q08499 186-808): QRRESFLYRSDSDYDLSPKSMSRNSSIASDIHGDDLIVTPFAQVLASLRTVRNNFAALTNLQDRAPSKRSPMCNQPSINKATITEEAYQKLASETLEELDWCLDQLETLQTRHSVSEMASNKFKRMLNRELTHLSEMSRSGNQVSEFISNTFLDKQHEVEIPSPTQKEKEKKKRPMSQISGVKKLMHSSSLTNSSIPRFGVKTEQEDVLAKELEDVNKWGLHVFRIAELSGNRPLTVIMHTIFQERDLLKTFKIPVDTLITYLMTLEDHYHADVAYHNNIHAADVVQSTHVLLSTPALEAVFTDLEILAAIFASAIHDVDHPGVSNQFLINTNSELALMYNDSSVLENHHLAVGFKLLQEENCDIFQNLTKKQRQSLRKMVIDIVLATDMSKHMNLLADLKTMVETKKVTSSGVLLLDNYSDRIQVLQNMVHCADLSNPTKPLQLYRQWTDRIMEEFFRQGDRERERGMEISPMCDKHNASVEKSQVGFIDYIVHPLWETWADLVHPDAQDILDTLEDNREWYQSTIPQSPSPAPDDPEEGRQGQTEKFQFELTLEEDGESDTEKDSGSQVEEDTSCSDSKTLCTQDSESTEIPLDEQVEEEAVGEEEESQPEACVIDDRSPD
Human PDE4A3, sequence (P27815 other isoform, or with tags, fused parts or gaps): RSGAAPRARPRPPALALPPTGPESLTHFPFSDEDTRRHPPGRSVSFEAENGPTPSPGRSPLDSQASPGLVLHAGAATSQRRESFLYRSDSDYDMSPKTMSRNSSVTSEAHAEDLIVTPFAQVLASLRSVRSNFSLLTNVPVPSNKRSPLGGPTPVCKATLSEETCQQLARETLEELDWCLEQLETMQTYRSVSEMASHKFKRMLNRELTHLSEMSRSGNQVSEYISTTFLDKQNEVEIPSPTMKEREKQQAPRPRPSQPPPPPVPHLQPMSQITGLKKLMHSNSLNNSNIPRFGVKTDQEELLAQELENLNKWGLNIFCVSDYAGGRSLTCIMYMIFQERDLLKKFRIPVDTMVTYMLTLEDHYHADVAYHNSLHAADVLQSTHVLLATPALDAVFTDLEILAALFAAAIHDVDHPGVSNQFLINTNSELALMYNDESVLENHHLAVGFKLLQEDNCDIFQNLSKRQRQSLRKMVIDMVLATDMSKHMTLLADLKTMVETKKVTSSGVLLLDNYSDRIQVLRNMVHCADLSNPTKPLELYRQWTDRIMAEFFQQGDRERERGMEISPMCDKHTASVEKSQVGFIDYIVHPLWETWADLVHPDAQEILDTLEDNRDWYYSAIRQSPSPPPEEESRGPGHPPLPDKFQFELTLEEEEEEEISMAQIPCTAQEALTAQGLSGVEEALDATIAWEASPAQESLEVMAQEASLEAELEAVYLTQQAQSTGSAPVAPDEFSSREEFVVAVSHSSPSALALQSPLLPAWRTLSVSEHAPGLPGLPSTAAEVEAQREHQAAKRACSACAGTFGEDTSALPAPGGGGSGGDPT
Human PDE4C1, sequence (Q08493 2-712): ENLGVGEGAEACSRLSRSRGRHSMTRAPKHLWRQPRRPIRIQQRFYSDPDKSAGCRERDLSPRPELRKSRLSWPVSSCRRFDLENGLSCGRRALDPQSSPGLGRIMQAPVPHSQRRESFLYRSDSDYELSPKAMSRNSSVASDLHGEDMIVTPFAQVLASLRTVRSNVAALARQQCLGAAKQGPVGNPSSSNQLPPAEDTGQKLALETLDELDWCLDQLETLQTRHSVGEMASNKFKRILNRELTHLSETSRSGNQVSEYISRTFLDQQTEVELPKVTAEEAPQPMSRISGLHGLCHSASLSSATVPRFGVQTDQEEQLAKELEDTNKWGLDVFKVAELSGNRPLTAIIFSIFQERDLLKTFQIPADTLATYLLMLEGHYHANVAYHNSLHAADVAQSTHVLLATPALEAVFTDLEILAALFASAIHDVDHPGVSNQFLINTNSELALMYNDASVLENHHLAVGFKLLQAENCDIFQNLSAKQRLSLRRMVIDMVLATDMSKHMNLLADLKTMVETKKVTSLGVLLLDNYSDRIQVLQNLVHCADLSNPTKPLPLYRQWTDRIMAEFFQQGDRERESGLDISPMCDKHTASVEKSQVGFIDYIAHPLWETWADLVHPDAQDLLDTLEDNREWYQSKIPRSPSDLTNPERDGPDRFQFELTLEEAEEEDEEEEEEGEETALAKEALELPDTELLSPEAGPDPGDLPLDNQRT
Human PDE4B1, sequence (Q07343 122-736 S133E/S654A/S659A/S661A): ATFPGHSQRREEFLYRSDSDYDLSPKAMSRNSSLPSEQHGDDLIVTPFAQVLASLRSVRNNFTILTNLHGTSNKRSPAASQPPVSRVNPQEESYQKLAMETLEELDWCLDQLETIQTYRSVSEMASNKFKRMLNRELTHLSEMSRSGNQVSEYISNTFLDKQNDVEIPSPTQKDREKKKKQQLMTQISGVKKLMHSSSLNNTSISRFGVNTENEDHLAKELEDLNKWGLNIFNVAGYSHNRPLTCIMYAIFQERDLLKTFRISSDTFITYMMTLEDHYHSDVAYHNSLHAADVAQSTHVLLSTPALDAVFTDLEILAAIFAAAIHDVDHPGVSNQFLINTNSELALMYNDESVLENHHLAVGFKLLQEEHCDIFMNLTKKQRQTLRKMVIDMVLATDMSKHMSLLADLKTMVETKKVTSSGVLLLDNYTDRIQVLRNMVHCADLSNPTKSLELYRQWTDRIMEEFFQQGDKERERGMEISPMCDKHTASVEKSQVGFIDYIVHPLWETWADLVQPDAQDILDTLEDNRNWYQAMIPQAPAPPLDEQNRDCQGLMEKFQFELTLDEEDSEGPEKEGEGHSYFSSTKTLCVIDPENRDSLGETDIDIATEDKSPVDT

In the case of `O=C1c2c(-c3ccc(Cl)c(F)c3)c3ncccc3n2CCN1c1ncccn1` [Example 74, 10-(4-Chloro-3-fluorophenyl)-8-(pyrimidin-2-yl)-7,8-dihydropyrido[2′,3′:4,5]pyrrolo[1,2-a]pyrazin-9(6H)-one], the IC50 in test [1] (setting [5]) stood at 19 nM; in test [2] (setting [5]), 27 nM; in test [3] (setting [5]) it was 52 nM; in test [4] (setting [5]), 660 nM.
With `O=C1c2c(-c3ccc(Cl)cc3)c3c(n2CCN1C1CC1)CCCO3` [Example 75, 10-(4-Chlorophenyl)-8-cyclopropyl-3,4,7,8-tetrahydro-2H-pyrano[2′,3′:4,5]pyrrolo[1,2-a]pyrazin-9(6H)-one], the IC50 in test [1] (setting [5]) is 1.26 nM; in test [2] (setting [5]), 3.99 nM; in test [3] (setting [5]) it was 11.7 nM; in test [4] (setting [5]), 286 nM.
In the same order, the values of `O=C1c2c(-c3ccc(Cl)c(F)c3)c3c(n2CCN1C1CC1)CCCO3` [Example 76, 10-(4-Chloro-3-fluorophenyl)-8-cyclopropyl-3,4,7,8-tetrahydro-2H-pyrano[2′,3′:4,5]pyrrolo[1,2-a]pyrazin-9(6H)-one] are less than 0.31 nM, less than 0.55 nM, 2 nM and 21.6 nM.
On the same counts, the results for `O=C1c2c(-c3cc(F)c(Cl)cc3F)c3c(n2CCN1C1CC1)CCCO3` [Example 77, 10-(4-Chloro-2,5-difluorophenyl)-8-cyclopropyl-3,4,7,8-tetrahydro-2H-pyrano[2′,3′:4,5]pyrrolo[1,2-a]pyrazin-9(6H)-one] are 1 nM, 0.84 nM, 5.94 nM and 56.2 nM.
In the case of `CS(=O)(=O)N1CCn2c(c(-c3ccc(Cl)cc3)c3ncccc32)C1=O` [Example 79, 10-(4-Chlorophenyl)-8-(methylsulfonyl)-7,8-dihydropyrido[2′,3′:4,5]pyrrolo[1,2-a]pyrazin-9(6H)-one], the IC50 is 104 nM in test [1] (setting [6]), 212 nM in test [2] (setting [6]), 173 nM in test [3] (setting [6]) and 120 nM in test [4] (setting [6]).
On to `CCNC(=O)N1CCn2c(c(-c3ccc(Cl)cc3)c3ncccc32)C1=O` [Example 80, 10-(4-Chlorophenyl)-N-ethyl-9-oxo-6,7-dihydropyrido[2′,3′:4,5]pyrrolo[1,2-a]pyrazine-8(9H)-carboxamide], for which the IC50 in test [1] (setting [6]) was 44 nM; in test [2] (setting [6]) it was 66.2 nM; in test [3] (setting [6]), 106 nM; in test [4] (setting [6]), 42.8 nM.
On the same counts, the results for `Cc1nccc(-c2c3n(c4cccnc24)CCN(C2CC2)C3=O)n1` [Example 81, 8-Cyclopropyl-10-(2-methylpyrimidin-4-yl)-7,8-dihydropyrido [2′,3′:4,5] pyrrolo[1,2-a]pyrazin-9(6H)-one] are greater than 30000 nM, greater than 30000 nM, 29700 nM and greater than 30000 nM.
In the same order, the values of `Cc1csc(-c2c3n(c4cccnc24)CCN(C2CC2)C3=O)n1` [Example 82, 8-Cyclopropyl-10-(4-methylthiazol-2-yl)-7,8-dihydropyrido[2′,3′:4,5]pyrrolo[1,2-a]pyrazin-9(6H)-one] are 11100 nM, 18500 nM, 4820 nM and greater than 30000 nM.
In the same order, the values of `Cc1cccnc1-c1c2n(c3cccnc13)CCN(C1CC1)C2=O` [Example 84, 8-Cyclopropyl-10-(3-methylpyridin-2-yl)-7,8-dihydropyrido[2′,3′:4,5]pyrrolo[1,2-a]pyrazin-9(6H)-one] are 15500 nM, greater than 25800 nM, greater than 30000 nM and greater than 30000 nM.
On to `CN(C)S(=O)(=O)c1cccc(-c2c3n(c4cccnc24)CCN(C2CC2)C3=O)c1` [Example 85, 3-(8-Cyclopropyl-9-oxo-6,7,8,9-tetrahydropyrido[2′,3′:4,5]pyrrolo[1,2-a]pyrazin-10-yl)-N,N-dimethylbenzenesulfonamide], for which the IC50 stood at 254 nM in test [1] (setting [6]), 437 nM in test [2] (setting [6]), 4960 nM in test [3] (setting [6]) and 724 nM in test [4] (setting [6]).
On the same counts, the results for `O=C1c2c(C3CCCC3)c3ncccc3n2CCN1C1CC1` [Example 86, 10-Cyclopentyl-8-cyclopropyl-7,8-dihydropyrido[2′,3′:4,5]pyrrolo[1,2-a]pyrazin-9(6H)-one] are 2.52 nM, 2.63 nM, 18.1 nM and 29 nM.
On the same counts, the results for `Cc1nc(-c2c3n(c4cccnc24)CCN(C2CC2)C3=O)cs1` [Example 88, 8-Cyclopropyl-10-(2-methylthiazol-4-yl)-7,8-dihydropyrido[2′,3′:4,5]pyrrolo[1,2-a]pyrazin-9(6H)-one] are 8080 nM, 11000 nM, 8420 nM and 16100 nM.
Turning to `Cn1cc(-c2c3n(c4cccnc24)CCN(C2CC2)C3=O)cn1` [Example 91, 8-Cyclopropyl-10-(1-methyl-1H-pyrazol-4-yl)-7,8-dihydropyrido[2′,3′:4,5]pyrrolo[1,2-a]pyrazin-9(6H)-one], the IC50 turned out to be 889 nM in test [1] (setting [6]), 2760 nM in test [2] (setting [6]), 2360 nM in test [3] (setting [6]) and 4450 nM in test [4] (setting [6]).
In the same order, the values of `Cn1ncc(Cl)c1-c1c2n(c3cccnc13)CCN(C1CC1)C2=O` [Example 93, 10-(4-Chloro-1-methyl-1H-pyrazol-5-yl)-8-cyclopropyl-7,8-dihydropyrido[2′,3′:4,5]pyrrolo[1,2-a]pyrazin-9(6H)-one] are 24000 nM, greater than 24700 nM, 6970 nM and greater than 30000 nM.
On the same counts, the results for `CS(=O)(=O)c1cccc(-c2c3n(c4cccnc24)CCN(C2CC2)C3=O)c1` [Example 94, 8-Cyclopropyl-10-(3-(methylsulfonyl)phenyl)-7,8-dihydropyrido[2′,3′:4,5]pyrrolo[1,2-a]pyrazin-9(6H)-one] are 720 nM, 467 nM, 1050 nM and 858 nM.
Turning to `CCCc1cnc(N2CCn3c(c(-c4ccc(Cl)cc4)c4ncccc43)C2=O)nc1` [Example 95, 10-(4-Chlorophenyl)-8-(5-propylpyrimidin-2-yl)-7,8-dihydropyrido[2′,3′:4,5]pyrrolo[1,2-a]pyrazin-9(6H)-one], the IC50 came out at 345 nM in test [1] (setting [6]), 1890 nM in test [2] (setting [6]), 649 nM in test [3] (setting [6]) and 1920 nM in test [4] (setting [6]).
As to `COCCCCCCN1CCn2c(c(-c3ccc(Cl)cc3)c3ncccc32)C1=O` [Example 96, 10-(4-Chlorophenyl)-8-(6-methoxyhexyl)-7,8-dihydropyrido[2′,3′:4,5]pyrrolo[1,2-a]pyrazin-9(6H)-one], the IC50 in test [1] (setting [6]) amounted to 87.5 nM; in test [2] (setting [6]), 98.4 nM; in test [3] (setting [6]), 52.8 nM; in test [4] (setting [6]), 137 nM.
In the same order, the values of `CCCc1ccnc(N2CCn3c(c(-c4ccc(Cl)cc4)c4ncccc43)C2=O)n1` [Example 97, 10-(4-Chlorophenyl)-8-(4-propylpyrimidin-2-yl)-7,8-dihydropyrido[2′,3′:4,5]pyrrolo[1,2-a]pyrazin-9(6H)-one] are 287 nM, 1040 nM, 526 nM and 1130 nM.
